Legend:
[1] = system: ERK2; assay: IP kinase assay, V5-tagged ERK2, phosphorylation of recombinant ELK-1 peptide; assay type: biochemical, human; conditions: for ERK kinase activity of ERK inhibitor resistance alleles in the presence of inhibitor: ERK2 resistance alleles, FIG. 3B, FIG. 10B
Experimental: (§1) Phosphorylation of ELK-1 (at serine 383) was measured by Western blotting.
(§2) ERK1 and ERK2 open constructs were transferred into DEST40 (C-terminal V5 tag) vector (Invitrogen) using LR clonase II. A375 cells were transiently transfected with V5-tagged ERK1 or ERK2 constructs using X-tremeGENE HP (Roche). […] Reactions were stopped with the addition on 3× SDS loading buffer. Samples were boiled and supernatant was run on SDS-PAGE gel for western blotting.

[2] = biological target: T1, ERK1 (Homo sapiens, UniProt P27361, Y148H); assay: IP kinase assay, V5-tagged ERK1, phosphorylation of recombinant ELK-1 peptide; assay type: biochemical; conditions: ERK1^Y148; trametinib 3 nM, 4 h
T1 construct: made in house; host or cells: A375 cells, transient transfection; captured on V5-agarose beads
T1 sequence (P27361 2-379 Y148H): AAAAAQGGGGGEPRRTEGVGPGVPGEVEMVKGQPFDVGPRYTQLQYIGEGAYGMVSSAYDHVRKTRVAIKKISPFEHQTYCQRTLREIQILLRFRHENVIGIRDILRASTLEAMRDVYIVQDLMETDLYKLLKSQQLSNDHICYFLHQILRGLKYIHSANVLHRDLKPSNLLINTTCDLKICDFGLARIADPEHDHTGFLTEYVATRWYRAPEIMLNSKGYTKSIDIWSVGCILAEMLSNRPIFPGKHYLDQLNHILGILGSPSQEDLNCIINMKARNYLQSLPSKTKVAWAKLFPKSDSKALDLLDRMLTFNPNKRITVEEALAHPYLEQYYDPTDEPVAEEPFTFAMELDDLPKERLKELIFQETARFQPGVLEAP

[3] = system: ERK1; assay: as above; assay type: biochemical, human; conditions: ERK1 alleles; trametinib 3 nM, 4 h, added to cells prior to harvest
[4] = system: ERK1/2; assay: Western blotting of ERK signaling in A375 cells expressing ERK1/2 alleles; assay type: cell-based; conditions: for ERK signaling (RSK phosphorylation, DUSP6, cyclin D1) in the presence of ERK inhibitor: ten ERK inhibitor resistance alleles, DOX, 24 h
Experimental: Cells were exposed to DOX with or without MAPK inhibitor at the same doses used in the screen for 24 h, then harvested in RIPA buffer, and run on SDS-PAGE. Proteins were transferred to PVDF membranes and analyzed using the following antibodies phosphoERK1/2, ERK1/2, phosphoELK-1 S383 (Santa Cruz), phosphoRSK (S380), RSK, tubulin, DUSP6 (Cell Signaling), cyclin D1 (Thermo Scientific), and V5 (Abcam). Relative expression was calculated by comparing densities of bands of phoshoELK-1 to total ERK (or V5). Values were normalized to untreated WT, which was set at 1.

[5] = system: A375 cells; assay: MTS growth assay of A375 cells expressing DOX-inducible ERK1/2 alleles in the presence of MAPK pathway inhibitors; assay type: cell-based
Source text: To verify their resistance effects, we engineered the relevant mutations for highly mutated alleles or for low frequency alleles that were analogous between ERK1 and ERK2 within the coding sequence of ERK1 or ERK2 by site directed mutagenesis in the doxycycline-inducible vector. […] Here, we defined validation as a >4-fold increase in cell growth conferred by DOX-induced mutant ERK expression compared to control cells cultured without DOX (FIG. 2A, Table 4, FIG. 8G).
A375, WM266.4, or SKmel19 cells were plated in 96-well plates, with six replicates for each drug. Drugs were added the next day with or without DOX. Cell growth was analyzed 72-96 hours later by MTS assay (Promega). The inhibitor concentrations were the same as the screen. […] Growth was normalized to DMSO, NO-DOX controls, and graphed as percent growth. Heatmaps were created from growth assays using GENE-E (Available on the World Wide Web at broadinstitute.org/cancer/software/GENE-E/download.html). For some growth assays, a half-log dose response curve was generated to determine sensitivity. The concentration of DMSO was 0.1%.

[6] = biological target: T2, ERK2 (Homo sapiens, UniProt P28482); assay: IP kinase assay, V5-tagged ERK2, phosphorylation of recombinant ELK-1 peptide; assay type: biochemical; conditions: wild type ERK2; VX-11e 0.1 μM added during the kinase assay
T2 construct: made in house; host or cells: A375 cells, transient transfection; captured on V5-agarose beads
T2 sequence (P28482 2-360): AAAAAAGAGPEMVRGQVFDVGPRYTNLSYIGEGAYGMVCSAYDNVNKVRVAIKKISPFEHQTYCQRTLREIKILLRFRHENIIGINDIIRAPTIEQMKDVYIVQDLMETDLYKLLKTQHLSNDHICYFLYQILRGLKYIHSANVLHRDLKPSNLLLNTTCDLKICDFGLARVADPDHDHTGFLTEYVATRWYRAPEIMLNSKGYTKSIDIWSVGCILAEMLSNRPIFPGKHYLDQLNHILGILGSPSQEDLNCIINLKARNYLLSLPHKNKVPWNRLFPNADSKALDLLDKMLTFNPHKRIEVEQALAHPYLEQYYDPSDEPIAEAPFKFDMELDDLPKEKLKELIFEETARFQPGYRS
Experimental: as §1, §2

SMILES	residual kinase activity of common docking domain mutants compared to other alleles ([1]; ERK2^Y131, ERK2^D321G, ERK2^E322K, trametinib 3 nM, 4 h)	ERK kinase activity (ELK-1 peptide phosphorylation) of RAF/MEK inhibitor resistant alleles in the presence of MEK inhibitor ([1]; ERK2 alleles, trametinib 3 nM, 4 h, added to cells prior to harvest)	residual kinase activity of common docking domain mutants compared to other alleles [2]	ERK kinase activity (ELK-1 peptide phosphorylation) of RAF/MEK inhibitor resistant alleles in the presence of MEK inhibitor [3]	ERK kinase activity of ERK inhibitor resistance alleles in the presence of inhibitor [1]	phosphorylation of ERK2-resistant alleles ([4]; A375, ERK inhibitor resistant ERK2 alleles)	ERK signaling (RSK phosphorylation, DUSP6, cyclin D1) in the presence of ERK inhibitor ([4]; A375)	phosphorylation of wild type ERK1/2 ([4]; A375, wild type ERK1/2)	growth advantage ([5]; ERK1^Y53H, 0.5 μM SCH772984)	increase in cell growth ([5]; ERK1^Y53H, 1 μM SCH772984)	increase in cell growth with allele expression ([5]; selected VX-11e-resistant ERK1 and ERK2 alleles, SCH772984)	ELK-1 phosphorylation (serine 383) induced by wild type ERK2 [6]	ERK phosphorylation ([4]; any context examined)	increase in cell growth conferred by DOX-induced mutant ERK expression compared to control cells cultured without DOX ([5]; 16 validated of 20 candidate ERK1/2 resistance alleles, VX-11e 2 μM)	effect on growth in the presence of the ERK inhibitor ([5]; kinase-dead ERK1 and ERK2 and GFP, VX-11e 2 μM)	growth advantage in the presence of the ERK inhibitor ([5]; wild-type ERK1 and ERK2, VX-11e 2 μM)
CC(=O)Nc1cccc(-n2c(=O)n(C3CC3)c(=O)c3c(Nc4ccc(I)cc4F)n(C)c(=O)c(C)c32)c1 [trametinib]	diminished residual kinase activity	maintained ERK kinase activity	diminished residual kinase activity	maintained ERK kinase activity	–	–	–	–	–	–	–	–	–	–	–	–
O=C(Nc1ccc2[nH]nc(-c3ccncc3)c2c1)[C@@H]1CCN(CC(=O)N2CCN(c3ccc(-c4ncccn4)cc3)CC2)C1 [SCH772984]	–	–	–	–	maintained ERK kinase activity	no effect	maintained	decreased	5 fold	2.5 fold	over 4 fold	–	–	–	–	–
Cc1cnc(Nc2ccc(F)cc2Cl)nc1-c1c[nH]c(C(=O)N[C@H](CO)c2cccc(Cl)c2)c1 [VX-11e]	–	–	–	–	maintained ERK kinase activity	–	sustained ERK signaling	–	–	–	–	completely blocked	no effect	> 4 fold	no effect	1.5 fold
